How the values were obtained:
[1] = Pharmacokinetic study in the guinea pig, 10 mg/kg oral dosing; type: in vivo; set-up: DNAUC(0-inf): unit not given beside the values; details: for DNAUC(0-inf): dose-normalised AUC; for Cmax / AUC / MRT / AUC(0-inf) / half-life: in vivo; for AUC: read-out: AUC0_last; for MRT: read-out: MRT0_last
Method: Pharmacokinetic studies in the guinea pig were run using 1 mg/kg IV dosing (20% DMA, 40% TEG, 40% water) and 10 mg/kg oral dosing (2% Tween-80, 98% HPMC (1% water)).

recombinant CYP-11 = recombinant CYP-11 (Homo sapiens (Human), UniProt P15538); experiment: Cyp11 assay protocol (cortisol formation from 11-deoxycortisol, LC/MS); type: cell-based; details: AD293 cells over-expressing recombinant CYP-11
Sequence of recombinant CYP-11 (P15538 25-503): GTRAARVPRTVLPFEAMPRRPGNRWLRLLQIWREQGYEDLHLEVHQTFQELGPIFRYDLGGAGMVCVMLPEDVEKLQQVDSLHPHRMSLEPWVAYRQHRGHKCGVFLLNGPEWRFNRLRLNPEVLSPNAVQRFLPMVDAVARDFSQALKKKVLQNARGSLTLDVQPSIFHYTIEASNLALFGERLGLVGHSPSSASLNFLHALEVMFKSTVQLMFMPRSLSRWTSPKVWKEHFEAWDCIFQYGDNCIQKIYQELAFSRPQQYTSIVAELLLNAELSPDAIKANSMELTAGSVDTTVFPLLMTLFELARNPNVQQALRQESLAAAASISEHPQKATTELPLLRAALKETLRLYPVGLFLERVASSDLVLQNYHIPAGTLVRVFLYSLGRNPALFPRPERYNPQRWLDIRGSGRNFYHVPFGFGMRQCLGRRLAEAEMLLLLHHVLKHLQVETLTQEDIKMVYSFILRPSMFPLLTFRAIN
Method: (§1) Cyp11 assay protocol: AD293 cells that stably over-express recombinant CYP-11 were seeded in 96 well plates coated with poly D-lysine (15,000 cell per well) and incubated at 37° C. for 24 hours in Dulbecco's Modified Eagle Medium (DMEM) with Fetal Bovine Serum (FBS) that is stripped of hormones by charcoal treatment. The media is then removed, the cells are washed once with Phosphate buffer saline solution, and 50 μL Dulbecco's Modified Eagle Medium (DMEM) with Fetal Bovine Serum (FBS) that is stripped of hormones by charcoal treatment is added. Compounds of the disclosure are then added to the wells in eight concentration spanning 10 μM to 4.5 nM, and the plates are incubated for an additional 60 minutes at 37° C. 11-deoxycortisol is then added (2.0 μM) and the plates are incubated for an additional 12 hours at 37° C. After incubation, 50 uL of the supernatant (medium) is transferred into a fresh plate and 150 uL of an acetonitrile solution containing 200 ng/ml of Telmisartan is added.

recombinant CYP-17 = recombinant CYP-17 (Homo sapiens (Human), UniProt P05093); experiment: Cyp17 assay protocol (3H-acetic acid release from [21-3H] 17α-hydroxyl-Pregnenolone); type: cell-based; details: AD293 cells over-expressing recombinant CYP-17
Sequence of recombinant CYP-17 (P05093 whole entry, species assumed): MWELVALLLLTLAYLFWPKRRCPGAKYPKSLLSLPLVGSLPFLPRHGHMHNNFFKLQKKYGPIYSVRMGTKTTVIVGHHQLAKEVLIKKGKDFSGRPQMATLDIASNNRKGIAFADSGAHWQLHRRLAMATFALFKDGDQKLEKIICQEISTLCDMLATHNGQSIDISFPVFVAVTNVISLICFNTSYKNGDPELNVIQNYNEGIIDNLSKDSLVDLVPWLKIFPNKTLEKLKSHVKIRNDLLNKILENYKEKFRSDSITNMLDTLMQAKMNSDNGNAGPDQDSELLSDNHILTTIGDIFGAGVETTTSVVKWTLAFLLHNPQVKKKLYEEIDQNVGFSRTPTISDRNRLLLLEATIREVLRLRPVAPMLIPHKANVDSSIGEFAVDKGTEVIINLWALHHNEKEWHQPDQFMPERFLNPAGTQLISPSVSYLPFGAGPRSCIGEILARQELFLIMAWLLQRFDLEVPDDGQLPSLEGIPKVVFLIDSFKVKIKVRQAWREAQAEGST
Method: Cyp17 assay protocol: AD293 cells that stably over-express recombinant CYP-17 were seeded in 96 well plates coated with poly D-lysine (15,000 cell per well) and incubated at 37° C. for 24 hours in Dulbecco's Modified Eagle Medium (DMEM) with Fetal Bovine Serum (FBS) that is stripped of hormones by charcoal treatment. The media is then removed, the cells are washed once with Phosphate buffer saline solution, and 50 μL Dulbecco's Modified Eagle Medium (DMEM) with Fetal Bovine Serum (FBS) that is stripped of hormones by charcoal treatment is added. Compounds of the disclosure are then added to the wells in eight concentration spanning 10 μM to 4.5 nM, and the plates are incubated for an additional 60 minutes at 37° C. [21-^3H] 17α-hydroxyl-Pregnenolone is then added (50 nCi per well, 31.25 nM) and the plates are incubated for an additional 4 hours at 37° C. The media is then collected, 200 μL of chloroform is added, and the mixture is shaken for 1 hour. The aqueous layer is then separated and analyzed for the presence of ^3H-acetic acid using a Perkin Elmer Topcount NXT to determine IC50s of the compounds of the disclosure.

recombinant CYP-21 = recombinant CYP-21 (Homo sapiens (Human), UniProt P08686); experiment: Cyp21 assay protocol (11-deoxycortisol formation from 17α-OH Progesterone, LC/MS); type: cell-based; details: AD293 cells over-expressing recombinant CYP-21
Sequence of recombinant CYP-21 (P08686 whole entry, species assumed): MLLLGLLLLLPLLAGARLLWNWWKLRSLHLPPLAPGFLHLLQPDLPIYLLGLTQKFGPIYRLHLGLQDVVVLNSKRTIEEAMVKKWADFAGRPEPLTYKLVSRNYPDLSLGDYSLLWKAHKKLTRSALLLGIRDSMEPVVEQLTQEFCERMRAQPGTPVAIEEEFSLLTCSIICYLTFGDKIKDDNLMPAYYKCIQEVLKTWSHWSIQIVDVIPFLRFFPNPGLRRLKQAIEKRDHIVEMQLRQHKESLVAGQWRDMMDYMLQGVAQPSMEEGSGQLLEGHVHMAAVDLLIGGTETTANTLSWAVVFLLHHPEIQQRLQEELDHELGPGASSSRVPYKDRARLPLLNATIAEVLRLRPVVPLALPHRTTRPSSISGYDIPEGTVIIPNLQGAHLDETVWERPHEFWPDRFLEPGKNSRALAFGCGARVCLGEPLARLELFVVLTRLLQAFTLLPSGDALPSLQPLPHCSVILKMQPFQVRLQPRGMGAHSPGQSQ
Method: as §1, with “Cyp21” for “Cyp11”, “CYP-21” for “CYP-11”, “(10,000” for “(15,000”, “17α-OH Progesterone” for “11-deoxycortisol”, “(1.0” for “(2.0”, “45 minutes” for “12 hours”

SMILES	IC50 (recombinant CYP-11)	IC50 (recombinant CYP-17)	IC50 (recombinant CYP-21)	further results
O=S(=O)(C1CC1)N1CCN(c2ccc(/C=C/c3cc(F)cc(-c4ccncc4)c3)cc2)CC1 [drawing 724]	–	–	–	DNAUC(0-inf) [1]: 160; Cmax [1]: 172 ng/mL; AUC [1]: 1600 ng·h/mL; MRT [1]: 7 h
CC(=O)N1CCN(c2ccc(/C=C/c3cc(Cl)cc(C(=C(C)C)c4cccnc4)c3)cc2)CC1 [Example 30]	1800 nM	210 nM	2400 nM	–
N#Cc1cccc(C(=O)N2CCN(c3ccc(/C=C/c4cc(Cl)cc(Cn5ccnc5)c4)cc3)CC2)c1 [Example 18]	4 nM	22 nM	–	–
CC(C)S(=O)(=O)N1CCN(c2ccc(CCc3cc(F)cc(-c4ccncc4)c3)cc2)CC1 [Example 42]	–	4 nM	1000 nM	–
O=C(C1CC1)N1CCN(c2ccc(/C=C/c3cc(Cl)cc(Cn4ccnc4)c3)cc2)CC1 [Example 22]	19 nM	48 nM	1400 nM	–
CC(C)S(=O)(=O)N1CCN(c2ccc(/C=C/c3cc(F)cc(-c4ccncc4)c3)cc2)CC1 [Example 40]	–	1 nM	190 nM	–
O=S(=O)(C1CC1)N1CCN(c2ccc(CCc3cc(F)cc(-c4ccncc4)c3)cc2)CC1 [Example 41]	–	3 nM	1200 nM	–
Fc1cc(/C=C/c2ccc(Br)cc2)cc(-c2ccncc2)c1 [Example 24]	–	42 nM	2600 nM	–
CCS(=O)(=O)N1CCN(c2ccc(/C=C/c3cc(F)cc(-c4ccncc4)c3)cc2)CC1 [Example 36]	200 nM	5 nM	520 nM	–
CC(=O)N1CCN(c2ccc(/C=C/c3cc(Cl)cc(-c4cccnc4)c3)cc2)CC1 [Example 32]	–	620 nM	–	–
CC(=O)N1CCN(c2ccc(/C=C/c3cc(Cl)cc(COc4cccnc4)c3)cc2)CC1 [Example 26]	140 nM	135 nM	–	–
Fc1cc(CCc2ccc(-c3ccncc3)cc2)cc(-c2ccncc2)c1 [Example 37]	–	190 nM	490 nM	–
O=S(=O)(c1cccnc1)N1CCN(c2ccc(/C=C/c3cc(F)cc(-c4ccncc4)c3)cc2)CC1 [Example 33]	220 nM	7 nM	3300 nM	–
O=S(=O)(c1cccnc1)N1CCN(c2ccc(/C=C/c3cc(Cl)cc(Cn4ccnc4)c3)cc2)CC1 [Example 21]	4 nM	17 nM	1380 nM	–
CCOC(=O)CNC(=O)N1CCN(c2ccc(/C=C/c3cc(F)cc(-c4ccncc4)c3)cc2)CC1 [Example 34]	1300 nM	8 nM	1010 nM	–
CC(=O)N1CCN(c2ccc(/C=C/c3cc(F)cc(-c4cccnc4)c3)cc2)CC1 [Example 27]	–	610 nM	–	–
CCS(=O)(=O)N1CCN(c2ccc(/C=C/c3cc(F)cc(-c4ccncc4)c3)cc2)CC1 [drawing 725]	–	–	–	AUCExtra [1]: 18.25%; DNAUC(0-inf) [1]: 330.1; AUC(0-inf) [1]: 4190 ng·h/mL; Cmax [1]: 540 ng/mL; half-life [1]: 4.8 h; AUC [1]: 3300 ng·h/mL; MRT [1]: 5.54 h

SMILES	IC50 (recombinant CYP-11)	IC50 (recombinant CYP-17)	IC50 (recombinant CYP-21)	further results
O=S(=O)(N1CCN(c2ccc(/C=C/c3cc(F)cc(-c4ccncc4)c3)cc2)CC1)C(F)(F)F [Example 39]	1500 nM	5 nM	316 nM	–
CCS(=O)(=O)N1CCN(c2ccc(CCc3cc(F)cc(-c4ccncc4)c3)cc2)CC1 [Example 44]	330 nM	2 nM	1600 nM	–
CCOC(=O)CNC(=O)N1CCN(c2ccc(CCc3cc(F)cc(-c4ccncc4)c3)cc2)CC1 [Example 43]	160 nM	7 nM	–	–
CC(=O)N1CCN(c2ccc(/C=C/c3cc(F)cc(-c4ccncc4)c3)cc2)CC1	–	–	–	AUCExtra [1]: 43.93%; DNAUC(0-inf) [1]: 823.1; AUC(0-inf) [1]: 14900 ng·h/mL; Cmax [1]: 1020 ng/mL; half-life [1]: 6 h; AUC [1]: 8230 ng·h/mL; MRT [1]: 5.56 h
O=S(=O)(C1CC1)N1CCN(c2ccc(/C=C/c3cc(F)cc(-c4ccncc4)c3)cc2)CC1 [Example 35]	140 nM	5 nM	393 nM	–
CC(=O)N1CCN(c2ccc(/C=C/c3cc(Cl)cc(C(O)(c4cccnc4)C(C)C)c3)cc2)CC1 (stereo not drawn) [Example 29]	370 nM	240 nM	3300 nM	–
CC(=O)N1CCN(c2ccc(/C=C/c3cc(Cl)cc(Cc4cccnc4)c3)cc2)CC1 [Example 28]	180 nM	35 nM	–	–
CC(C)=C(c1cccnc1)c1cc(Cl)cc(/C=C/c2ccc(-c3ccncc3)cc2)c1 [Example 46]	–	300 nM	–	–
Fc1cc(/C=C/c2ccc(-c3ccncc3)cc2)cc(-c2ccncc2)c1 [Example 25]	3700 nM	11 nM	850 nM	–
O=S(=O)(N1CCN(c2ccc(/C=C/c3cc(F)cc(-c4ccncc4)c3)cc2)CC1)C(F)(F)F [drawing 726]	–	–	–	AUCExtra [1]: 25.87%; DNAUC(0-inf) [1]: 164.6; AUC(0-inf) [1]: 2450 ng·h/mL; Cmax [1]: 271 ng/mL; half-life [1]: 5.3 h; AUC [1]: 1650 ng·h/mL; MRT [1]: 5.01 h
CCOC(=O)CNC(=O)NC1CCN(c2ccc(/C=C/c3cc(Cl)cc(Cn4ccnc4)c3)cc2)CC1 [Example 47]	250 nM	3.5 nM	73 nM	–
N#Cc1cccc(CN2CCN(c3ccc(/C=C/c4cc(Cl)cc(Cn5ccnc5)c4)cc3)CC2)c1 [Example 23]	7 nM	25 nM	285 nM	–
O=S(=O)(N1CCN(c2ccc(CCc3cc(F)cc(-c4ccncc4)c3)cc2)CC1)C(F)(F)F [Example 45]	183 nM	16.5 nM	2800 nM	–
CCOC(=O)CNC(=O)N1CCN(c2ccc(/C=C/c3cc(Cl)cc(Cn4ccnc4)c3)cc2)CC1 [Example 20]	27 nM	41 nM	360 nM	–
CC(=O)N1CCN(c2ccc(/C=C/c3cc(Cl)cc(-c4ccncc4)c3)cc2)CC1 [Example 31]	–	5 nM	1100 nM	–
Fc1cc(/C=C/c2ccc(N3CCN(CC4CC4)CC3)cc2)cc(-c2ccncc2)c1 [Example 38]	54 nM	5 nM	770 nM	–
Clc1cc(/C=C/c2ccc(N3CCN(CC4CC4)CC3)cc2)cc(Cn2ccnc2)c1 [Example 19]	11 nM	17 nM	585 nM	–
